Measured values reported in article PMC10223997, “Screening and Elucidation of Chemical Structures of Novel Mammalian α-Glucosidase Inhibitors Targeting Anti-Diabetes Drug from Herbals Used by E De Ethnic Tribe in Vietnam” (Pharmaceuticals, 2023).
Values after ≈ are worked out from the molar mass of the structure shown.

Tested on: Rat α-Glucosidase
Assay: Alpha-glucosidase inhibition assay (rat intestinal acetone powder, pNPG substrate)
Format: biochemical
Conditions: for maximum inhibition / IC50: purified compounds and acarbose, Figure 2
Experimental: • - Enzyme solution preparation: Enzyme solution was then sonicated 24 times, each for 12 s at 4 °C, and then centrifuged for 20 min at 10,000× g, 4 °C. The residue part was re-suspended twice with 15 mL of the same buffer (0.1 mol/L NPB, pH 7), as described above. All supernatants were mixed together and dialyzed for a half day at 4–6 °C to obtain the enzyme solution, which was then used for further analyses. • - Reaction and estimation of inhibitory activity: The enzyme inhibition assay was done according to Kwon et al. 2006 [40] with slight modification. The enzyme solution (50 µL) and the sample solution (50 µL) were mixed in 150 μL of 0.1 mol/L NPB, pH 7. This mixture was pre-incubated at 37 °C for 15 min. The reaction was started by adding 50 μL of the substrate pNPG (10 mmol/L) into this mixture solution, and this duration was kept at 37 °C for 30 min, then 325 μL of 1 mol/L Na2CO3 solution were added to terminate the reaction. This absorption of the final solution was measured at 410 nm (namely, E) using a UV spectrometer (UV-2550, Shimadzu, Japan) to estimate the enzymatic activity, and the control experiment was also conducted similarly, but instead of the inhibitor solution, 50 μL 0.1 mol/L potassium phosphate buffer (pH 7) and the absorbance was measured at 410 nm (namely, C). The inhibitory effect (%) was calculated using the equation below:
α-Glucosidase inhibition (%) = (C − E)/C × 100, where E denoted the optical density of the solution reaction in the presence of both α-glucosidase and the sample, and C is the optical density of the reaction blank.

SMILES	Inhibition of Rat α-Glucosidase % (MeOH extracts of medicinal plants and acarbose, Table 1) [%]	Inhibition of Rat α-Glucosidase IC50 (MeOH extracts of medicinal plants and acarbose, listed as Acarbose) [µg/mL]	Inhibition of Rat α-Glucosidase IC50 (MeOH extracts of medicinal plants and acarbose, listed as acarbose) [µg/mL]	maximum inhibition	IC50 [µg/mL]
C[C@H]1O[C@H](O[C@H]2[C@H](O)[C@@H](O)[C@@H](O[C@H]3[C@H](O)[C@@H](O)C(O)O[C@@H]3CO)O[C@@H]2CO)[C@H](O)[C@@H](O)[C@@H]1N[C@H]1C=C(CO)[C@@H](O)[C@H](O)[C@H]1O (stereo partly drawn) [AC, acarbose, reference compound]	92	310	309	84–85%	–
Oc1cc(O)c2c(c1)O[C@H](c1ccc(O)c(O)c1)[C@H](O)C2 [ECC, (−)-epicatechin]	–	–	–	84–85%	–
C[C@@H]1O[C@@H](Oc2cc3c(=O)oc4c(O)c(O)cc5c(=O)oc(c2O)c3c45)[C@H](O)[C@H](O)[C@H]1O [EWC, eschweilenol C]	–	–	–	93%	191 (≈ 0.426 mM)
O=C(O)c1cc(O)c(O)c(O)c1 [GA, gallic acid]	–	–	–	80%	973 (≈ 5.72 mM)
